{"source": "BindingDB's records for doi:10.1016/j.bioorg.2016.01.007", "about": "(Universiti Teknologi Mara (Uitm), Puncak Alam Campus, 2016)", "target": "T1, Beta-glucuronidase (Bos taurus, UniProt A3KMY8)", "T1 sequence (A3KMY8 whole entry)": "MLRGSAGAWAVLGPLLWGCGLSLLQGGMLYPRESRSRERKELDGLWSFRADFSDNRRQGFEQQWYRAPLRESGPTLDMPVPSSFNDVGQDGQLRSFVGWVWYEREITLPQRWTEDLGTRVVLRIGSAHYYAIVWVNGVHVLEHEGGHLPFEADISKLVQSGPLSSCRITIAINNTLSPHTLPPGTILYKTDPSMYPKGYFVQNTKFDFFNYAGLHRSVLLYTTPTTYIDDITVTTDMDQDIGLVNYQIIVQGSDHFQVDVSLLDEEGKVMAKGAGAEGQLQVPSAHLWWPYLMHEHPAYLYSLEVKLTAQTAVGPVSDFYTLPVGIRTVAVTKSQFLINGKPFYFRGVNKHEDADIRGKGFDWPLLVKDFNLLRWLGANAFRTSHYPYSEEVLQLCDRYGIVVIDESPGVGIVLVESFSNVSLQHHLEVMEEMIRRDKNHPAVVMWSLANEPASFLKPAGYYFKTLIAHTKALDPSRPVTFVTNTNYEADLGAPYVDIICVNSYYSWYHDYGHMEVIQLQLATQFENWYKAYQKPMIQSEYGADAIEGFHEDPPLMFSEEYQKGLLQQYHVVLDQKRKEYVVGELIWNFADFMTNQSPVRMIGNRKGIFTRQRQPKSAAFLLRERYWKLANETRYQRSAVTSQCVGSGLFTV", "assay": "β-Glucuronidase Inhibition Assay", "procedure": "The total reaction volume was set at 250 µL. The reaction mixture comprises of 185 µL of 0.1 M acetate buffer, 5 µL of test compound solution, 10 µL of enzyme solution and incubated at 37 °C for 30 min. […] All assays were carried out in triplicate.", "data": [{"compound": "COc1ccc(O)c(-c2nc3ncc(Cl)cc3[nH]2)c1", "note": "[2-(6-Chloro-1H-imidazo[4,5-b]pyridin-2-yl)-4-methoxyphenol (13)]", "values": [{"measurement": "IC50", "result": 129, "unit": "µM"}]}, {"compound": "COc1ccc(-c2nc3ncc(Cl)cc3[nH]2)c(O)c1", "note": "[2-(6-Chloro-1H-imidazo[4,5-b]pyridin-2-yl)-5-methoxyphenol (19)]", "values": [{"measurement": "IC50", "result": 114, "unit": "µM"}]}, {"compound": "Oc1cccc(-c2nc3ncc(Cl)cc3[nH]2)c1", "note": "[3-(6-Chloro-1H-imidazo[4,5-b]pyridin-2-yl)phenol (8)]", "values": [{"measurement": "IC50", "result": 68.1, "unit": "µM"}]}, {"compound": "Oc1ccc(-c2nc3ncc(Cl)cc3[nH]2)c(O)c1", "note": "[4-(6-Chloro-1H-imidazo[4,5-b]pyridin-2-yl)benzene-1,3-diol (2)]", "values": [{"measurement": "IC50", "result": 49.6, "unit": "µM"}]}, {"compound": "Oc1ccc(-c2nc3ncc(Cl)cc3[nH]2)cc1", "note": "[4-(6-Chloro-1H-imidazo[4,5-b]pyridin-2-yl)phenol (26)]", "values": [{"measurement": "IC50", "result": 52.6, "unit": "µM"}]}]}
